Test results taken from ChEMBL document CHEMBL3813697, “Design, synthesis, and anticancer activity of C8-substituted-4'-thionucleosides as potential HSP90 inhibitors” (Bioorg Med Chem, 2016).
The source made the active and inactive calls. The rule behind the calls is not given here.

What was measured:
[1] = biological target: Heat shock protein HSP90 (Homo sapiens) (UniProt P07900+P08238); test: Competitive inhibition of recombinant HSP90 (unknown origin) at 100 uM measured after 3 hrs using FITC-labeled geldanamycin by fluorescence polarization assay
[2] = tested on: A549; test: Anticancer activity against human A549 cells measured after 72 hrs by SRB assay; format: functional, cell-based; details: A549, 72 h
[3] = Anticancer activity against human HCT116 cells measured after 72 hrs by SRB assay; format: functional, cell-based; details: HCT-116, 72 h
[4] = tested on: MDA-MB-231; test: Anticancer activity against human MDA-MB-231 cells measured after 72 hrs by SRB assay; format: functional, cell-based; details: MDA-MB-231, 72 h
[5] = Anticancer activity against human Caki1 cells measured after 72 hrs by SRB assay; format: functional, cell-based; details: CAKI-1, 72 h
[6] = Anticancer activity against human SNU638 cells measured after 72 hrs by SRB assay; format: functional, cell-based; details: SNU-638, 72 h

| SMILES | inhibition [1] | other results |
| --- | --- | --- |
| Nc1ncnc2c1nc(-c1cccs1)n2[C@@H]1SC[C@@H](O)[C@H]1O | inactive |  |
| O[C@@H]1[C@H](O)CS[C@H]1n1c(-c2ccco2)nc2c(Cl)ncnc21 | inactive |  |
| COC1=C2C[C@@H](C)C[C@H](OC)[C@H](O)[C@@H](C)/C=C(\C)[C@H](OC(N)=O)[C@@H](OC)/C=C\C=C(/C)C(=O)NC(=CC1=O)C2=O [GELDANAMYCIN] |  | IC50 [2]: 109 nM; IC50 [3]: 150 nM; IC50 [4]: 110 nM; IC50 [5]: 56 nM; IC50 [6]: 30 nM |
| CNc1ncnc2c1nc(-c1cccs1)n2[C@@H]1SC[C@@H](O)[C@H]1O | inactive |  |
| Nc1ncnc2c1nc(-c1ccco1)n2[C@@H]1SC[C@@H](O)[C@H]1O | inactive |  |
| Nc1ncnc2c1nc(N1CCCCC1)n2[C@@H]1SC[C@@H](O)[C@H]1O | inactive |  |
| CNc1ncnc2c1nc(-c1ccco1)n2[C@@H]1SC[C@@H](O)[C@H]1O | inactive |  |
| O[C@@H]1[C@H](O)CS[C@H]1n1c(-c2cccs2)nc2c(Cl)ncnc21 | inactive |  |
| [N-]=[N+]=Nc1nc2c(Cl)ncnc2n1[C@@H]1SC[C@@H](O)[C@H]1O | inactive |  |

Further lines, with some results ahead:

| inhibition [1] | SMILES | other results |
| --- | --- | --- |
| inactive | CCCNc1nc2c(N)ncnc2n1[C@@H]1SC[C@@H](O)[C@H]1O |  |
| 11% | Nc1ncnc2c1nc(I)n2[C@@H]1SC[C@@H](O)[C@H]1O |  |
| inactive | CNc1nc2c(N)ncnc2n1[C@@H]1SC[C@@H](O)[C@H]1O |  |
| inactive | [N-]=[N+]=Nc1nc2c(N)ncnc2n1[C@@H]1SC[C@@H](O)[C@H]1O |  |
| inactive | [N-]=[N+]=Nc1nc2c(N)ncnc2n1[C@@H]1S[C@H](CO)[C@@H](O)[C@H]1O |  |
| inactive | Nc1ncnc2c1nc(-c1ccco1)n2[C@@H]1S[C@H](CO)[C@@H](O)[C@H]1O |  |
| inactive | Nc1ncnc2c1nc(-c1ccccc1)n2[C@@H]1S[C@H](CO)[C@@H](O)[C@H]1O |  |
| inactive | Nc1ncnc2c1nc(NCc1ccccc1)n2[C@@H]1SC[C@@H](O)[C@H]1O |  |
| inactive | Nc1ncnc2c1nc(N1CCCCC1)n2[C@@H]1S[C@H](CO)[C@@H](O)[C@H]1O |  |
| inactive | Nc1ncnc2c1nc(NCc1ccc3c(c1)OCO3)n2[C@@H]1SC[C@@H](O)[C@H]1O | IC50 [2]: > 100000 nM; IC50 [3]: > 100000 nM; IC50 [4]: > 100000 nM; IC50 [5]: > 100000 nM; IC50 [6]: > 100000 nM |
| inactive | CCCNc1nc2c(N)ncnc2n1[C@@H]1S[C@H](CO)[C@@H](O)[C@H]1O |  |
| inactive | CNc1nc2c(N)ncnc2n1[C@@H]1S[C@H](CO)[C@@H](O)[C@H]1O |  |
| inactive | Nc1ncnc2c1nc(-c1cccs1)n2[C@@H]1S[C@H](CO)[C@@H](O)[C@H]1O |  |
